Counter-ions that a name gives are not always drawn.
Legend:
[1] = oxidation potential E2 of radical X by laser flash photolysis; format: physicochemical; conditions: Table H; model compound, A and L replaced by alkyl
Source text: In this technique, the compound X-Y is oxidized by an electron transfer reaction initiated by a short laser pulse. The oxidized form of X-Y then undergoes the bond cleavage reaction to give the radical X^.cndot.. X^.cndot. is then allowed to interact with various electron acceptor compounds of known reduction potential. […] The experimental details are set forth more fully below. The oxidation potentials (E2) for radicals X^.cndot. for typical compounds useful in accordance with our invention are given in Table C. Where only limits on potentials could be determined, the following notation is used: <-0.90 V should be read as "more negative than -0.90 V" and >-0.40 V should be read as "less negative than -0.40 V".
(a) Oxidation Potential of Radical X.cndot.
The laser flash photolysis measurements were performed using a nanosecond pulsed excimer (Questek model 2620, 308 nm, ca. 20 ns, ca. 100 mJ) pumped dye laser (Lambda Physik model FL 3002). The laser dye was DPS (commercially available from Exciton Co.) in p-dioxane (410 nm, ca. 20 ns, ca. 10 mJ). The analyzing light source was a pulsed 150W xenon arc lamp (Osram XBO 150/W). The arc lamp power supply was a PRA model 302 and the pulser was a PRA model M-306. The pulser increased the light output by ca. 100 fold, for a time period of ca. 2-3 ms. The analyzing light was focussed through a small aperture (ca. 1.5 mm) in a cell holder designed to hold 1 cm^2 cuvettes. The laser and analyzing beams irradiated the cell from opposite directions and crossed at a narrow angle (ca. 15°). After leaving the cell, the analyzing light was collimated and focussed onto the slit (1 mm, 4 nm bandpass) of an ISA H-20 monochromator. The light was detected using 5 dynodes of a Hamamatsu model R446 photomultiplier. The output of the photomultiplier tube was terminated into 50 ohm, and captured using a Tektronix DSA-602 digital oscilloscope. The entire experiment is controlled from a personal computer.
The experiments were performed either in acetonitrile, or a mixture of 80% acetonitrile and 20% water. The first singlet excited state of a cyanoanthracene (A), which acted as the electron acceptor, was produced using the nanosecond laser pulse at 410 nm. […] Secondary electron transfer then occurred between B^.cndot.+ and the lower oxidation potential electron donor X-Y, to generate X-Y^.cndot.+ in high yield. For the investigations of the oxidation potentials of the radicals X^.cndot., typically the cyanoanthrancene concentration was ca. 2×10^-5 M to 10^-4 M the biphenyl concentration was ca. 0.1M. The concentration of the X-Y donor was ca. 10^-3 M. The rates of the electron transfer reactions are determined by the concentrations of the substrates. The concentrations used ensured that the A^.cndot.- and the X-Y^.cndot.+ were generated within 100 ns of the laser pulse. The radical ions could be observed directly by means of their visible absorption spectra. The kinetics of the photogenerated radical ions were monitored by observation of the changes in optical density at the appropriate wavelengths.
The reduction potential (Ered) of 9,10-dicyanoanthracene (DCA) is -0.91 V. In a typical experiment, DCA is excited and the initial photo-induced electron transfer from the biphenyl (B) to the DCA forms a DCA^.cndot.-, which is observed at its characteristic absorption maximum (λobs =705 nm), within ca. 20 ns of the laser pulse. Rapid secondary electron transfer occurs from X-Y to B^.cndot.+ to generate X-Y^.cndot.+, which fragments to give X^.cndot.. A growth in absorption is then observed at 705 nm with a time constant of ca. 1 microsecond, due to reduction of a second DCA by the X^.cndot.. The absorption signal with the microsecond growth time is equal to the size of the absorption signal formed within 20 ns.
If the oxidation potential of X^.cndot. is not sufficiently negative to reduce DCA, an estimate of its oxidation potential was obtained by using other cyanoanthracenes as acceptors. […]

[2] = Example 5: photographic speed and fog, 365 nm exposure, fragmenting vs non-fragmenting one-electron donors, emulsion T-2; parameters: Fog: unit not given here; conditions: for sensitivity and fog change: undyed T-2 emulsion
Procedure: (§1) For photographic evaluation, each of the coating strips was exposed for 0.1 sec to a 365 nm emission line of a Hg lamp filtered through a Kodak Wratten filter number 18A and a step wedge ranging in density from 0 to 4 density units in 0.2 density steps. The exposed film strips were developed for 6 min in Kodak Rapid X-ray Developer (KRX). S365, relative sensitivity at 365 nm, was evaluated at a density of 0.2 units above fog.
An AgBrI tabular silver halide emulsion (Emulsion T-2) was prepared containing 4.05% total I distributed such that the central portion of the emulsion grains contained 1.5% I and the perimeter area contained substantially higher I, as described by Chang et. al., U.S. Pat. No. 5,314,793. […] This emulsion was precipitated using deionized gelatin. The emulsion was sulfur sensitized by adding 8.5×10^-6 mole 1,3-dicarboxymethyl-1,3-dimethyl-2-thiourea /mole Ag at 40° C.; the temperature was then raised to 60° C. at a rate of 5° C./3 min and the emulsions held for 20 min before cooling to 40° C. The chemically sensitized emulsion was then used to prepare coatings containing the fragmentable two-electron donor compounds. […] Where present, the blue sensitizing dye D-I or the red sensitizing dye D-II were added from methanol solution to the emulsion at 40° C. after the chemical sensitization and disulfocatechol addition. The fragmentable two-electron donor compounds were added to the emulsion at 40° C. and the coatings were prepared and tested as described in Example 1, except that the additional gelatin used to prepare the coatings described in Table III was deionized gelatin.
Where present, the sensitizing dye D-II was added from methanol solution to the emulsion at 40° C. after the chemical sensitization but before the addition of the one-electron donating compound. The coatings were tested for their response to a 365 nm exposure as described in Example 1. For this exposure, the relative sensitivity was set equal to 100 for the control coating with no one-electron donating compound added.

[3] = oxidation potential E1 by cyclic voltammetry; format: physicochemical; conditions: for E1 (V) for XY moiety: Table H, model compound, A and L replaced by alkyl
Procedure: Oxidation potentials are well known and can be found, for example, in "Encyclopedia of Electrochemistry of the Elements", Organic Section, Volumes XI-XV, A. Bard and H. Lund (Editors) Marcel Dekker Inc., NY. (1984). E1 can be measured by the technique of cyclic voltammetry. In this technique, the electron donating compound is dissolved in a solution of 80%/20% by volume acetonitrile to water containing 0.1M lithium perchlorate. Oxygen is removed from the solution by passing nitrogen gas through the solution for 10 minutes prior to measurement. A glassy carbon disk is used for the working electrode, a platinum wire is used for the counter electrode, and a saturated calomel electrode (SCE) is used for the reference electrode. Measurement is conducted at 25° C. using a potential sweep rate of 0.1 V/sec. The oxidation potential vs. SCE is taken as the peak potential of the cyclic voltammetric wave.

[4] = fragmentation rate constant kfr by laser flash photolysis; format: physicochemical; conditions: Table H; model compound, A and L replaced by alkyl
Source text: The kinetics of the bond cleavage or fragmentation reaction can be measured by conventional laser flash photolysis. […] The specific experimental apparatus we used to measure fragmentation rate constants and radical oxidation potentials is described in detail below.
(b) Fragmentation Rate Constant Determination
These absorptions were used to determine the kinetics of the fragmentation reactions of the radical cations of the X-Y. Excitation of 9,10-dicyanoanthracene (DCA) in the presence of biphenyl and the X-Y donor, as described above, results in the formation of the DCA^.cndot.- and the X-Y^.cndot.+. By using a concentration of X-Y of ca. 10^-2 M, the X-Y^.cndot.+ can be formed within ca. 20 ns of the laser pulse. […] The monitoring wavelengths used were somewhat different for the different donors, but were mostly around 470-530 nm. […] Alternatively, when the decay rate of the X-Y^.cndot.+ was less than 10^6 s^-1, the solutions were purged with oxygen.
The experiments measuring the fragmentation rate constants were performed in acetonitrile with the addition of 20% water, so that all of the salts could be easily solubilized. Most experiments were performed at room temperature. […] When this happened, the fragmentation rate constants were measured as a function of temperature, and the rate constant at room temperature determined by extrapolation.

[5] = Example 2: photographic speed and fog, 365 nm exposure, acids vs corresponding esters, emulsion T-1; parameters: Fog: unit not given here; conditions: for Fog / S365: undyed; for S365: control=100
Procedure: This chemically sensitized emulsion was then used to prepare the experimental coating variations indicated in Table I. All of the experimental coating variations in Table I contained the hydroxybenzene 2,4-disulfocatechol (HB3) at a concentration of 13 mmole/mole Ag, added to the melt before the addition of any further addenda. The fragmentable electron donor compounds as indicated in Table I were added from an aqueous potassium bromide solution, or from a methanol solution, before additional water, gelatin, and surfactant were added to the emulsion melts.
as §1
The coatings described in Table II all contain the hydroxybenzene, 2,4-disulfocatechol (HB3) at a concentration of 13 mmole/mole Ag, added to the melt before any further addenda.

[6] = Example 10: photographic sensitivity and fog, color format, blue sensitized emulsion T-2; conditions: for Photographic Sensitivity SWR2B: control=100
Procedure: The hydroxybenzene, 2,4-disulfocatechcol (HB3) at a concentration of 13×10^-3 mole/mole Ag was added to the emulsion melt before the start of the chemical sensitization procedure. […] The fragmentable two-electron donors S-3, S-9, S-6, or S-8 were then added to the emulsion melt.
The melts were prepared for coating by adding additional water, deionized gelatin and coating surfactants. Coatings were prepared by combining the emulsion melts with a melt containing deionized gelatin and an aqueous dispersion of the cyan-forming color coupler CC-1 and coating the resulting mixture on acetate support. […] The structure of the color coupler CC-1 is given below: [drawing 120]
For photographic evaluation, each of the coating strips was exposed for 0.01 sec to a 3000K color temperature tungsten lamp filtered to give an effective color temperature of 5500K and further filtered through a Kodak Wratten filter number 2B, and a step wedge ranging in density from 0 to 4 density units in 0.20 density steps. This exposure gives light absorbed mainly by the blue sensitizing dye. The exposed film strips were developed for 31/4 minutes in Kodak C-41 color developer. SWR2B, relative sensitivity for this filtered exposure, was evaluated at a cyan density of 0.15 units above fog.

[7] = 0.044 x10^-3 mole/mole Ag, dye D-II 0.86 x10^-3
[8] = 0.044 x10^-3 mole/mole Ag, dye D-II 0.86 x10^-3, dyed control 69
[9] = 0.044 x10^-3 mole/mole Ag, no dye, no HB3
[10] = 0.044 x10^-3 mole/mole Ag, no dye, no HB3, control=100
[11] = 0.14 x10^-3 mole/mole Ag, dye D-II 0.86 x10^-3
[12] = 0.14 x10^-3 mole/mole Ag, dye D-II 0.86 x10^-3, dyed control 69
[13] = 0.14 x10^-3 mole/mole Ag, no dye, no HB3
[14] = 0.14 x10^-3 mole/mole Ag, no dye, no HB3, control=100

Structure (SMILES) | E2 (V) for XY moiety [1] [V] | Fog [2, 7] | S365 [2, 8] | Fog [2, 9] | S365 [2, 10] | Fog [2, 11] | S365 [2, 12] | Fog [2, 13] | S365 [2, 14] | sensitivity and fog change [2] | E1 (V) for XY moiety [3] [V] | E1 (V) ([3]; Table V) | kfr (s^-1) for XY moiety [4] | further results
CCSCCN(CCSCC)c1ccc(CC(=O)O)cc1 [Compound S-17, Sodium 2-(4-N,N-bis(ethylthioethyl)aminophenyl)acetate] | < -0.5 | 0.11 | 80 | 0.05 | 110 | 0.11 | 89 | 0.06 | 120 | increased the 365 nm sensitivity of the undyed emulsion | 0.57 | 0.62 | ≈ 3 × 10^5 s^-1 | –
CCSCCN(c1ccc(OC)cc1)C(C)C(=O)O (centres unmarked) [Compound S-1, sodium salt] | < -0.9 | – | – | – | – | – | – | – | – | – | 0.22 | – | 1.1e+06 s⁻¹ | Fog ([5]; 0.00022 x10^-3 mole/mole Ag): 0.06; S365 ([5]; 0.00022 x10^-3 mole/mole Ag): 107; Fog ([5]; 0.00070 x10^-3 mole/mole Ag): 0.28; S365 ([5]; 0.00070 x10^-3 mole/mole Ag): 89; Fog ([5]; 0.00220 x10^-3 mole/mole Ag): 0.82; speed and fog change ([5]; undyed T-1 emulsion): both speed and fog increases; E1 (V) ([3]; Table II): 0.35 V
CCSCCN(CC(=O)[O-])c1ccc(C)cc1.[Na+] [Compound S-6, N-(4-Methylphenyl)-N-(2-ethylthio-ethyl)glycine sodium salt] | – | – | – | – | – | – | – | – | – | – | – | – | – | E1 (V) ([3]; Table X): 0.45 V; Fog ([6]; 0.022 x10^-3 mol/mol Ag): 0.14; Photographic Sensitivity SWR2B ([6]; 0.022 x10^-3 mol/mol Ag): 120; Fog ([6]; 0.07 x10^-3 mol/mol Ag): 0.21; Photographic Sensitivity SWR2B ([6]; 0.07 x10^-3 mol/mol Ag): 126
CCSCCNC(=O)CCN(CC)c1ccc(CC(=O)O)cc1 [Compound S-18] | < -0.5 | 0.05 | 95 | 0.05 | 135 | 0.06 | 107 | 0.06 | 148 | increased the 365 nm sensitivity of the undyed emulsion | 0.57 | 0.68 | ≈ 3 × 10^5 s^-1 | –

Reference: US5747235A, “Silver halide light sensitive emulsion layer having enhanced photographic sensitivity” (Eastman Kodak Company, priority 1996, dated 1998)
